Test results reported in US8399465B2, “Compounds with two fused bicyclic heteroaryl moieties as modulators of leukotriene A4 hydrolase” (Janssen Pharmaceutica NV, priority 2009, dated 2013).
Where a name gives a salt, the structure may show the parent alone.

How the values were obtained:
[1] = target: T1, recombinant human LTA4 hydrolase (rhLTA4H) (Homo sapiens, UniProt P09960); assay: Recombinant human LTA4 hydrolase assay for LTA4 hydrolase inhibitor activity; assay type: biochemical; settings: rhLTA4H, LTB4 by immunoassay; single determination or average of two or more; mark after value = form tested: ′ free base, ″ hydrochloride, ^ formate; read-out: IC50
T1 construct: made in house; host or cells: Spodoptera frugiperda (Sf-9) cells, baculovirus (pFastBac1)
T1 sequence (P09960 1-611): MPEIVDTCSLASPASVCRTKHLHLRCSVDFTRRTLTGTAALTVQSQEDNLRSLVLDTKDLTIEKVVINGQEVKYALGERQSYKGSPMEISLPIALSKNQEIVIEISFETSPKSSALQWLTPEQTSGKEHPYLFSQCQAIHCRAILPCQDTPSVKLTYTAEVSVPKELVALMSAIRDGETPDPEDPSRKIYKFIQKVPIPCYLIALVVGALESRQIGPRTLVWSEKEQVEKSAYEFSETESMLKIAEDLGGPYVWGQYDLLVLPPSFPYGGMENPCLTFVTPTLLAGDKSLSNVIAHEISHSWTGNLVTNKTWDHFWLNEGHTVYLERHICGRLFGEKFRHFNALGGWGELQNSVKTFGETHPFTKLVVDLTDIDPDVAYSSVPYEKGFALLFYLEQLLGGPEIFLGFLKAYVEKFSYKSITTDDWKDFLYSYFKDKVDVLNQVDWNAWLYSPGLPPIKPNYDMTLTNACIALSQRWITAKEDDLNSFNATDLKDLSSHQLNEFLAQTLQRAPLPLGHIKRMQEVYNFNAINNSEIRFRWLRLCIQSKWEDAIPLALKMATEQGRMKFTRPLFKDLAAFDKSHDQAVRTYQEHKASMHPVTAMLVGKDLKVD
Method in brief: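 LTB4 formation, measured by enzyme immunoassay, was the read-out. The enzyme, recombinant human LTA4H expressed in Sf-9 insect cells (10 ng per reaction), was exposed to compound for 10 min at room temperature before hydrolysed-ester LTA4 substrate was added for 30 min. Enzyme-free negatives were included.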

[2] = tested on: LTB4 production in murine blood (LTA4H); assay: LTB4 production by calcium ionophore-stimulated murine blood for LTA4H inhibitor activity; assay type: cell-based, CD-1 mice; settings: Mus musculus; murine blood diluted 1 in 15, A23187 stimulated; single determination or average; mark after value = form tested: ′ free base, ″ hydrochloride, ^ formate; read-out: IC50
Method in brief: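 LTB4 was measured by ELISA in supernatants after calcium ionophore A23187 stimulation (final 7 μg/mL, 30 min, 37° C) of CD-1 mouse blood collected on heparin. Compound was preincubated with the blood for 15 min beforehand. Values come from one determination or average several.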

Row | IC50 [1] | IC50 [2] | SMILES
1 | 2 nM | 100 nM | O=C(C1CCN(Cc2c[nH]c3cc(Oc4nc5ccccc5s4)ccc23)CC1)N1CCOCC1 [Example 25, {1-[6-(Benzothiazol-2-yloxy)-1H-indol-3-ylmethyl]-piperidin-4-yl}-morpholin-4-yl-methanone]
2 | 2 nM | 366 nM | CCOC(=O)C1CCN(Cc2coc3cc(Oc4nc5ncccc5s4)ccc23)CC1 [Example 224, 1-[6-(Thiazolo[4,5-b]pyridin-2-yloxy)-benzofuran-3-ylmethyl]-piperidine-4-carboxylic acid ethyl ester]
3 | 31 nM | 72 nM | CC(=O)NC1CCN(Cc2coc3cc(Oc4nc5ncc(F)cc5s4)ccc23)CC1 [Example 255, N-{1-[6-(6-Fluoro-thiazolo[4,5-b]pyridin-2-yloxy)-benzofuran-3-ylmethyl]-piperidin-4-yl}-acetamide formate]
4 | 35 nM | 130 nM | c1cnc2nc(Oc3ccc4c(CN5CCC(N6CCCC6)CC5)coc4c3)sc2c1 [Example 283, 2-[3-(4-Pyrrolidin-1-yl-piperidin-1-ylmethyl)-benzofuran-6-yloxy]-thiazolo[4,5-b]pyridine formate]
5 | 93 nM | 2430 nM | CCn1c(CN2CCCC2)cc2cc(Oc3nc4ccccc4s3)ccc21 [Example 64, 2-(1-Ethyl-2-pyrrolidin-1-ylmethyl-1H-indol-5-yloxy)-benzothiazole]
6 | 2 nM | 100 nM | c1cnc2nc(Oc3ccc4c(CN5CCC6CCCCC6C5)coc4c3)sc2c1 (stereo not drawn) [Example 266, 2-[6-(Thiazolo[4,5-b]pyridin-2-yloxy)-benzofuran-3-ylmethyl]-decahydro-isoquinoline formate]
7 | 26 nM | 230 nM | CC(=O)N1C[C@@H]2C[C@H]1CN2Cc1coc2cc(Oc3nc4ccccc4s3)ccc12 [Example 164, (1S,4S)-1-{5-[6-(Benzothiazol-2-yloxy)-benzofuran-3-ylmethyl]-2,5-diaza-bicyclo[2.2.1]hept-2-yl}-ethanone]
8 | 29 nM | 120 nM | FC1(F)CN(Cc2coc3cc(Oc4nc5ncccc5s4)ccc23)C1 [Example 316, 2-[3-(3,3-Difluoro-azetidin-1-ylmethyl)-benzofuran-6-yloxy]-thiazolo[4,5-b]pyridine]
9 | 12 nM | 93 nM | F[C@@H]1CCN(Cc2coc3cc(Oc4nc5ncccc5s4)ccc23)C1 [Example 328, (R)-2-[3-(3-Fluoro-pyrrolidin-1-ylmethyl)-benzofuran-6-yloxy]-thiazolo[4,5-b]pyridine]
10 | 8 nM | 204 nM | CC(=O)NC1CCN(Cc2c[nH]c3cc(Oc4nc5ccccc5s4)ccc23)CC1 [Example 53, N-{1-[6-(Benzothiazol-2-yloxy)-1H-indol-3-ylmethyl]-piperidin-4-yl}-acetamide]
11 | 8 nM | 150 nM | OC1CCN(Cc2coc3cc(Oc4nc5ncccc5s4)ccc23)CC1 [Example 268, 1-[6-(Thiazolo[4,5-b]pyridin-2-yloxy)-benzofuran-3-ylmethyl]-piperidin-4-ol]
12 | 9 nM | 71 nM | CC(C)CN1CCN(Cc2coc3cc(Oc4nc5ncccc5s4)ccc23)CC1 [Example 308, 2-[3-(4-Isobutyl-piperazin-1-ylmethyl)-benzofuran-6-yloxy]-thiazolo[4,5-b]pyridine formate]
13 | 17 nM | 582 nM | CC(C)(C)OC(=O)N1CC2CN(Cc3c[nH]c4cc(Oc5nc6ccccc6s5)ccc34)CC2C1 (stereo not drawn) [Example 146, 5-[6-(Benzothiazol-2-yloxy)-1H-indol-3-ylmethyl]-hexahydro-pyrrolo[3,4-c]pyrrole-2-carboxylic acid tert-butyl ester]
14 | 60 nM | 200 nM | CN(Cc1ccco1)Cc1coc2cc(Oc3nc4ncccc4s3)ccc12 [Example 176, Furan-2-ylmethyl-methyl-[6-(thiazolo[4,5-b]pyridin-2-yloxy)-benzofuran-3-ylmethyl]-amine]
15 | 34 nM | 234 nM | c1cnc2nc(Oc3ccc4c(CN5CCc6c(sc7ccccc67)C5)c[nH]c4c3)sc2c1 [Example 35, 2-[6-(Thiazolo[4,5-b]pyridin-2-yloxy)-1H-indol-3-ylmethyl]-1,2,3,4-tetrahydro-benzo[4,5]thieno[2,3-c]pyridine]
16 | 16 nM | 820 nM | O=C1CCc2ccccc2N1Cc1coc2cc(Oc3nc4ncccc4s3)ccc12 [Example 397, 1-[6-(Thiazolo[4,5-b]pyridin-2-yloxy)-benzofuran-3-ylmethyl]-3,4-dihydro-1H-quinolin-2-one]
17 | 2 nM | 79 nM | CNC(=O)C1CCN(Cc2c[nH]c3cc(Oc4nc5ccccc5s4)ccc23)CC1 [Example 22, 1-[6-(Benzothiazol-2-yloxy)-1H-indol-3-ylmethyl]-piperidine-4-carboxylic acid methylamide]
18 | 3 nM | 68 nM | O=C(CO)N1CC2CN(Cc3coc4cc(Oc5nc6ncccc6s5)ccc34)CC2C1 (stereo not drawn) [Example 355, 2-Hydroxy-1-{5-[6-(thiazolo[4,5-b]pyridin-2-yloxy)-benzofuran-3-ylmethyl]-hexahydro-pyrrolo[3,4-c]pyrrol-2-yl}-ethanone]
19 | 4 nM | 19 nM | c1cnc2nc(Oc3ccc4c(CN5CCCCC5)coc4c3)sc2c1 [Example 212, 2-(3-Piperidin-1-ylmethyl-benzofuran-6-yloxy)-thiazolo[4,5-b]pyridine]
20 | 26 nM | 860 nM | CC1CN(Cc2coc3cc(Oc4nc5ncccc5s4)ccc23)CC(C)O1 (stereo not drawn) [Example 349, 2-[3-(2,6-Dimethyl-morpholin-4-ylmethyl)-benzofuran-6-yloxy]-thiazolo[4,5-b]pyridine]
21 | 17 nM | 968 nM | c1ccc2c(c1)CN(Cc1c[nH]c3cc(Oc4nc5ccccc5s4)ccc13)C2 [Example 6, 2-[3-(1,3-Dihydro-isoindol-2-ylmethyl)-1H-indol-6-yloxy]-benzothiazole]
22 | 97 nM | 488 nM | NC(=O)C1CCN(Cc2cc3cc(Oc4nc5ccccc5s4)ccc3o2)CC1 [Example 105, 1-[5-(Benzothiazol-2-yloxy)-benzofuran-2-ylmethyl]-piperidine-4-carboxylic acid amide]
23 | 95 nM | 10 nM | c1cnc2nc(Oc3ccc4c(CNCCN5CCOCC5)coc4c3)sc2c1 [Example 306, (2-Morpholin-4-yl-ethyl)-[6-(thiazolo[4,5-b]pyridin-2-yloxy)-benzofuran-3-ylmethyl]-amine formate]
24 | 23 nM | 190 nM | CS(=O)(=O)C1CCN(Cc2c[nH]c3cc(Oc4nc5ccccc5s4)ccc23)CC1 [Example 4, 2-[3-(4-Methanesulfonyl-piperidin-1-ylmethyl)-1H-indol-6-yloxy]-benzothiazole]
25 | 40 nM | 170 nM | COc1ccc(N2CCN(Cc3coc4cc(Oc5nc6ncccc6s5)ccc34)CC2)cc1 [Example 290, 2-{3-[4-(4-Methoxy-phenyl)-piperazin-1-ylmethyl]-benzofuran-6-yloxy}-thiazolo[4,5-b]pyridine formate]

Row | SMILES | IC50 [1] | IC50 [2]
26 | CC(=O)N[C@H]1C[C@H]2CC[C@@H](C1)N2Cc1cc2ccc(Oc3nc4ncccc4s3)cc2[nH]1 [Example 72, meso-endo-N-{8-[6-(Thiazolo[4,5-b]pyridin-2-yloxy)-1H-indol-2-ylmethyl]-8-aza-bicyclo[3.2.1]oct-3-yl}-acetamide] | 27 nM | 100 nM
27 | NC(=O)N1C[C@@H]2C[C@H]1CN2 [Inter. 17, (1S,4S)-2,5-Diaza-bicyclo[2.2.1]heptane-2-carboxylic acid amide hydrochloride] | 37 nM | 1000 nM
28 | CC(=O)N[C@H]1C[C@H]2CC[C@@H](C1)N2Cc1c[nH]c2cc(Oc3nc4ccccc4s3)ccc12 [Example 13, meso-endo-N-{8-[6-(Benzothiazol-2-yloxy)-1H-indol-3-ylmethyl]-8-aza-bicyclo[3.2.1]oct-3-yl}-acetamide] | 2 nM | 100 nM
29 | OC1(c2ccc(Br)cc2)CCN(Cc2coc3cc(Oc4nc5ncccc5s4)ccc23)CC1 [Example 348, 4-(4-Bromo-phenyl)-1-[6-(thiazolo[4,5-b]pyridin-2-yloxy)-benzofuran-3-ylmethyl]-piperidin-4-ol] | 67 nM | 360 nM
30 | CC(=O)N1C[C@H]2CC[C@@H](C1)N2Cc1cc2ccc(Oc3nc4cnccc4s3)cc2o1 [Example 202, meso-1-{8-[6-(Thiazolo[4,5-c]pyridin-2-yloxy)-benzofuran-2-ylmethyl]-3,8-diaza-bicyclo[3.2.1]oct-3-yl}ethanone] | 1520 nM | 2700 nM
